Test results from patent publication US7498343B2, “Mycobacterial inhibitors” (priority 2002, dated 2009).
Converted amounts (≈) assume the structure as drawn. Like-named read-outs stand apart in the source and are kept apart here.

What was measured:
[1] = system: Mycobacterium tuberculosis (strain H37RV); assay: In-vitro method for testing compounds against M. tuberculosis (resazurin growth inhibition, MIC); format: cell-based; conditions: MIC data representing IC90's, 7 days incubation, resazurin fluorescence
M. Smegmatis ATCC607 = assay: In-vitro method for testing compounds for anti-bacterial activity against strain M. smegmatis ATCC607 (Alamar Blue growth inhibition); format: cell-based; conditions: M. smegmatis ATCC607, pIC50 = -logIC50, IC50 in M, 50% inhibitory concentration for bacterial growth, 48 hours incubation
Experimental: C.2. In-vitro Method for Testing Compounds for Anti-bacterial Activity Against Strain M. Smegmatis ATCC607. […] Subsequently, stock solutions (7.8×final test concentration) of compounds were added in 45 μl volumes to a series of duplicate wells in column 2 so as to allow evaluation of their effects on bacterial growth. Serial five-fold dilutions (45 μl in 180 μl) were made directly in the microtiter plates from column 2 to 11 using a customised robot system (Zymark Corp., Hopkinton, Mass.). Pipette tips were changed after every 3 dilutions to minimize pipetting errors with high hydrophobic compounds. Untreated control samples with (column 1) and without (column 12) inoculum were included in each microtiter plate. Approximately 250 CFU per well of bacteria inoculum, in a volume of 100 μl in 2.8×Mueller-Hinton broth medium, was added to the rows […]. The same volume of broth medium without inoculum was added to column 12 in row A to H. The cultures were incubated at 37° C. for 48 hours in a humidified 5% CO2 atmosphere (incubator with open air valve and continuous ventilation). At the end of incubation, two days after inoculation, the bacterial growth was quantitated fluorometrically. Therefore Alamar Blue (10×) was added to all wells in a volume of 20 μl and plates were incubated for another 2 hours at […] The fluorescence was read in a computer-controlled fluorometer (Cytofluor, Biosearch) at an excitation wavelength of 530 nm and an emission wavelength of 590 nm (gain 30). The % growth inhibition achieved by the compounds was calculated according to standard methods.

[2] = Mycobacterium tuberculosis, H37RV, 168 h, read-out: MIC

| Structure (SMILES) | MIC [1] [microgram/ml] | pIC50 (M. Smegmatis ATCC607) | MIC [1, 2] [µg/mL] | IC50 (M. Smegmatis ATCC607; Mycolicibacterium smegmatis, ATCC607, 48 h, read-out: pIC50 (converted)) [nM] |
| --- | --- | --- | --- | --- |
| COc1nc2ccc(Br)cc2cc1C(c1ccccc1)C(O)(CCN1CCN(C)CC1)c1ccc2ccccc2c1 (racemic) [Compound 136] | 16.81 | 6.2 |  |  |
| COc1nc2ccc(Br)cc2cc1C(c1ccccc1)C(O)(CCN1CCOCC1)c1ccccc1 (racemic) [Compound 123] | 54.75 | 4.2 |  |  |
| COc1nc2ccc(Br)cc2cc1C(c1ccccc1)C(O)(CCCN(C)C)c1ccccc1 (single isomer, unassigned) [Compound 63] | 1.64 | 6.7 |  |  |
| COc1nc2ccc(F)cc2cc1C(c1ccccc1)C(O)(CCN(C)C)c1cc(F)cc(F)c1 (racemic) [Compound 208] | 0.38 | 7.9 |  |  |
| COc1nc2ccc(Br)cc2cc1C(c1ccccc1)C(O)(CCN1CCCCC1)c1ccccc1 (centres unmarked) [Compound 48] | 8.65 | 5.8 |  |  |
| COc1nc2cccc(Br)c2cc1C(c1ccccc1)C(O)(CCN(C)C)c1cccc2ccccc12 (single isomer, unassigned) [Compound 224] | 44.13 | 4.9 |  |  |
| COc1nc2ccc(Br)cc2cc1C(c1ccccc1)C(O)(CCN(C)C)c1cc(F)cc(F)c1 (centres unmarked) [Compound 115] | 0.07 | 8.6 |  |  |
| COc1nc2ccc(Br)cc2cc1C(c1ccccc1)C(O)(CCCN1CCOCC1)c1ccc2ccccc2c1 (single isomer, unassigned) [Compound 198] | 61.16 | 4.3 |  |  |
| COc1nc2cc(Br)ccc2cc1C(c1ccccc1)C(O)(CCN(C)C)c1cccc2ccccc12 (single isomer, unassigned) [Compound 217] | 44.13 | 6.9 |  |  |
| COc1nc2ccc(Br)cc2cc1C(c1ccccc1)C(O)(CCN(C)C)c1ccc(F)cc1 (single isomer, unassigned) [Compound 182] | 8.30 | 6.3 |  |  |
| COc1nc2ccc(Br)cc2cc1C(c1ccccc1)C(O)(CCN(C)C)c1ccsc1 (single isomer, unassigned) [Compound 25] | 20.36 | 5.2 |  |  |
| COc1nc2c(C)cc(Br)cc2cc1C(c1ccccc1)C(O)(CCN(C)C)c1cccc(F)c1 (single isomer, unassigned) [Compound 220] | 8.52 | 5.3 |  |  |
| COc1nc2ccc(F)cc2cc1C(c1ccccc1)C(O)(CCN(C)C)c1ccccc1 (single isomer, unassigned) [Compound 28] | 1.41 | 7.3 |  |  |
| COc1nc2ccc(F)cc2cc1C(c1ccccc1)C(O)(CCN(C)C)c1ccccc1 (single isomer, unassigned) [Compound 29] | 44.46 | 5.9 |  |  |
| COc1nc2ccccc2cc1C(c1ccccc1)C(O)(CCN(C)C)c1ccccc1 (single isomer, unassigned) [Compound 40] | 21.38 | 4.7 |  |  |
| COc1nc2ccc(Br)cc2cc1C(c1ccccc1)C(O)(CCN(C)C)c1ccc2c(c1)OCCO2 (racemic) [Compound 78] | 44.76 | 5.8 |  |  |
| COc1nc2ccc(Br)cc2cc1C(c1ccccc1)C(O)(CCN1CCCCC1)c1ccc2cc(Br)ccc2c1 (centres unmarked) [Compound 166] | 67.45 | 4.1 |  |  |
| COc1nc2ccc(Br)cc2cc1C(c1ccccc1)C(O)(CCN1CCN(C)CC1)c1ccc2cc(Br)ccc2c1 (single isomer, unassigned) [Compound 153] | 54.77 | 5.3 |  |  |
| CCN(CC)CCCC(O)(c1ccc2ccccc2c1)C(c1ccccc1)c1cc2cc(Br)ccc2nc1OC (single isomer, unassigned) [Compound 192] | 5.98 | 6.5 |  |  |
| COc1nc2ccc(Br)cc2cc1C(c1ccccc1)C(O)(CCN1CCOCC1)c1ccccc1 (racemic) [Compound 124] | 54.75 | 5.3 |  |  |
| COc1nc2ccc(Br)cc2cc1C(c1ccccc1)C(O)(CC[N+](C)(C)[O-])c1cccc2ccccc12 (single isomer, unassigned) [Compound 100] | 45.40 | 7.1 |  |  |
| COc1nc2ccc(Br)cc2cc1C(c1ccccc1)C(O)(CCN(C)C)c1ccc2c3c(cccc13)CC2 (single isomer, unassigned) [Compound 122] | 58.16 | 4.8 |  |  |

| Structure (SMILES) | MIC [1] [microgram/ml] | pIC50 (M. Smegmatis ATCC607) | MIC [1, 2] [µg/mL] | IC50 (M. Smegmatis ATCC607; Mycolicibacterium smegmatis, ATCC607, 48 h, read-out: pIC50 (converted)) [nM] |
| --- | --- | --- | --- | --- |
| COc1nc2ccc(-c3ccccc3)cc2cc1C(c1ccccc1)C(O)(CCN(C)C)c1cccc2ccccc12 (racemic) [Compound 84] | 8.76 | 7.0 |  |  |
| COc1nc2ccc(Br)cc2cc1C(c1ccccc1)C(O)(CCCN1CCCC1)c1cccc2ccccc12 (single isomer, unassigned) [Compound 194] | 47.31 | 4.9 |  |  |
| COc1nc2ccc(Br)cc2cc1C(c1ccccc1)C(O)(CCN1CCCC1)c1ccc2ccccc2c1 (single isomer, unassigned) [Compound 144] | 52.46 | 7.0 |  |  |
| CSc1nc2ccc(Br)cc2cc1C(c1ccccc1)C(O)(CCN(C)C)c1ccccc1 (single isomer, unassigned) [Compound 32] | 0.33 | 7.4 |  |  |
| CN(C)CCC(O)(c1ccccc1)C(c1ccccc1)c1cc2cc(Br)ccc2n(C)c1=O (single isomer, unassigned) [Compound 107] | 44.13 | 5.8 |  |  |
| COc1nc2ccc(Br)cc2cc1C(c1ccccc1)C(O)(CCCCN(C)C)c1ccccc1 (single isomer, unassigned) [Compound 65] | 1.69 | 5.7 |  |  |
| COc1nc2ccc(Br)cc2cc1C(c1ccccc1)C(O)(CCN(C)C)c1cccnc1 (racemic) [Compound 87] | 40.23 | 5.0 |  |  |
| COc1nc2ccc(Br)cc2cc1C(c1ccccc1)C(O)(CCN1CCOCC1)c1ccc2ccccc2c1 (single isomer, unassigned) [Compound 139] | 59.76 | 4.1 |  |  |
| COc1nc2ccc(-c3ccco3)cc2cc1C(c1ccccc1)C(O)(CCN(C)C)c1cccc(F)c1 (single isomer, unassigned) [Compound 174] | 0.06 | 6.8 |  |  |
| COc1nc2ccc(Br)cc2cc1C(c1ccccc1)C(O)(CCCN1CCOCC1)c1cccc2ccccc12 (single isomer, unassigned) [Compound 210] | 61.16 | 6.1 |  |  |
| COc1nc2ccc(Br)cc2cc1C(c1ccccc1)C(O)(CCN(C)C)c1cccc2ccccc12 (centres unmarked) [Compound 14] | 8.80 | 6.8 |  |  |
| COc1nc2ccc(Br)cc2cc1C(c1ccccc1)C(O)(CCN1CCCCC1)c1cccc2ccccc12 (centres unmarked) [Compound 145] |  | 5.3 | 59.6 (≈ 100 µM) |  |
| COc1nc2ccc(Br)cc2cc1C(c1ccccc1)C(O)(CCN(C)C)c1ccc(N2CCOCC2)cc1 (racemic) [Compound 89] | 59.06 | 6.4 |  |  |
| CCOc1nc2ccc(Br)cc2cc1C(c1ccccc1)C(O)(CCN(C)C)c1ccccc1 (centres unmarked) [Compound 6] | 8.23 | 5.8 |  |  |
| COc1nc2ccccc2cc1C(c1ccccc1)C(O)(CCN(C)C)c1ccccc1 (single isomer, unassigned) [Compound 41] | 8.51 | 5.9 |  |  |
| CN(C)CCC(O)(c1cccc2ccccc12)C(c1ccccc1)c1cc2cc(Br)ccc2nc1N1CCOCC1 (racemic) [Compound 79] | 2.43 | 7.2 |  |  |
| CNCCC(O)(c1cccc2ccccc12)C(c1ccccc1)c1cc2cc(Br)ccc2nc1OC (centres unmarked) [Compound 56] |  |  | 43 (≈ 79.4 µM) | 63.1 |
| CCN(CC)CCCC(O)(c1ccc2ccccc2c1)C(c1ccccc1)c1cc2cc(Br)ccc2nc1OC (single isomer, unassigned) [Compound 193] | 9.47 | 5.6 |  |  |
| COc1nc2ccc(Br)cc2cc1C(c1ccccc1)C(O)(CCN(C)C)c1cc(Br)cc2ccccc12 (single isomer, unassigned) [Compound 150] | 63.44 | 5.7 |  |  |
| COc1nc2ccc(Br)cc2cc1C(c1ccccc1)C(O)(CCCN1CCOCC1)c1cccc2ccccc12 (single isomer, unassigned) [Compound 211] | 61.16 | 4.1 |  |  |
| COc1nc2ccc(Br)cc2cc1C(c1ccccc1)C(O)(CC[N+](C)(C)[O-])c1cccc2ccccc12 (racemic) [Compound 101] | 9.06 | 5.8 |  |  |
